How the values were obtained:
Experiment in all cases: relative viability (nuclei count vs DMSO), 5 days (fraction); higher = more cells survive
TGX 221 + Crizotinib = compound: CC1=CN2C(=O)C=C(N=C2C(=C1)C(C)NC3=CC=CC=C3)N4CCOCC4 [TGX 221] + C[C@@H](Oc1cc(-c2cnn(C3CCNCC3)c2)cnc1N)c1c(Cl)ccc(F)c1Cl [Crizotinib] (partner 1 µM)
In short: (§1)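 Lung cancer cell lines in 1536-well plates were dosed by pin tool the day after seeding, either with one drug alone or with a fixed anchor-drug dose plus five library-drug doses (not always all listed) in √10 steps. After 5 days, cells were fixed and their nuclei stained in one step (final 0.05% Triton X-100, 1% formaldehyde, 1 ug/ml Hoechst), then counted on 4× images. Relative viability is the nuclei count in treated wells divided by that in vehicle wells. Values are medians of duplicate plates.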

[1] = compound: C1=CC=C(C(=C1)C2=CC=C(C=C2)C3=CSC4=C3C(=C(C(=O)N4)C#N)O)O + N=C(N)NC(=N)NCCc1ccccc1 [Phenformin] (partner 250 µM)
In short: as §1

Ricolinostat + Lapatinib = compound: O=C(CCCCCCNC(=O)c1cnc(N(c2ccccc2)c2ccccc2)nc1)NO [Ricolinostat] + CS(=O)(=O)CCNCc1ccc(-c2ccc3ncnc(Nc4ccc(OCc5cccc(F)c5)c(Cl)c4)c3c2)o1 [Lapatinib] (partner 2 µM)
In short: as §1

TGX 221 + Luminespib = compound: CC1=CN2C(=O)C=C(N=C2C(=C1)C(C)NC3=CC=CC=C3)N4CCOCC4 [TGX 221] + CCNC(=O)c1noc(-c2cc(C(C)C)c(O)cc2O)c1-c1ccc(CN2CCOCC2)cc1 [Luminespib] (partner 0.01 µM)
In short: as §1

| Cell Line | relative viability (TGX 221 + Crizotinib; first compound 0.253 µM) | relative viability (TGX 221 + Crizotinib; first compound 0.8 µM) | relative viability (TGX 221 + Crizotinib; first compound 2.53 µM) | relative viability (TGX 221 + Crizotinib; first compound 8 µM) | relative viability ([1]; first compound 0.08 µM) | relative viability ([1]; first compound 0.253 µM) | relative viability ([1]; first compound 0.8 µM) | relative viability ([1]; first compound 2.53 µM) | relative viability ([1]; first compound 8 µM) | relative viability (Ricolinostat + Lapatinib; first compound 0.08 µM) | relative viability (Ricolinostat + Lapatinib; first compound 0.253 µM) | relative viability (Ricolinostat + Lapatinib; first compound 0.8 µM) | relative viability (Ricolinostat + Lapatinib; first compound 2.53 µM) | relative viability (TGX 221 + Luminespib; first compound 0.08 µM) | relative viability (TGX 221 + Luminespib; first compound 0.253 µM) | relative viability (TGX 221 + Luminespib; first compound 0.8 µM) | relative viability (TGX 221 + Luminespib; first compound 2.53 µM) | relative viability (TGX 221 + Luminespib; first compound 8 µM) | relative viability (TGX 221 + Crizotinib; first compound 0.08 µM) |
| --- | --- | --- | --- | --- | --- | --- | --- | --- | --- | --- | --- | --- | --- | --- | --- | --- | --- | --- | --- |
| 201T | 1.07 | 1.01 | 0.993 | 0.985 | 0.335 | 0.451 | 0.46 | 0.462 | 0.434 | 0.921 | 1.01 | 0.95 | 1.07 | 1.09 | 1.04 | 1.13 | 0.979 | 0.871 | – |
| A549 | 0.743 | 0.773 | 0.751 | 0.529 | 0.124 | 0.184 | 0.123 | 0.192 | 0.238 | 0.977 | 0.887 | 0.859 | 0.72 | – | – | – | – | – | 0.677 |
| A-427 | 0.924 | 0.879 | 0.776 | 0.824 | 0.234 | 0.313 | 0.315 | 0.328 | 0.31 | 0.892 | 1.01 | 0.897 | 1.02 | 0.892 | 0.82 | 0.863 | 0.843 | 0.861 | 0.958 |
| ABC-1 | 0.809 | 1.25 | 1.01 | 1.26 | 0.241 | 0.274 | 0.241 | 0.259 | 0.239 | 1.27 | 1.12 | 1.3 | 1.65 | 0.477 | – | 0.622 | 0.767 | 0.484 | 0.946 |
| BEN | 0.641 | 0.821 | 0.795 | 0.721 | 0.282 | 0.289 | 0.265 | 0.278 | 0.274 | 0.613 | 0.643 | 0.588 | 0.423 | 0.26 | 0.234 | 0.4 | 0.378 | 0.332 | 0.931 |
| CAL-12T | 0.673 | 0.72 | 0.689 | 0.595 | 0.566 | 0.668 | 0.593 | 0.575 | 0.547 | 0.326 | 0.751 | 0.628 | 0.668 | 0.644 | 0.206 | 0.244 | 0.295 | 0.257 | 0.53 |
| Calu-6 | 0.698 | 0.806 | 0.768 | 0.693 | – | – | – | – | – | 0.926 | 1.03 | 1.01 | 0.785 | – | – | – | – | – | 0.718 |
| ChaGo-K-1 | 1.01 | 1.18 | 1.11 | 0.989 | 0.448 | 0.523 | 0.519 | 0.483 | 0.407 | – | – | – | – | 0.584 | 0.617 | 0.574 | 0.559 | 0.505 | 1.1 |
| EBC-1 | 0.183 | 0.211 | 0.178 | 0.183 | – | – | – | – | – | 0.206 | 0.207 | 0.221 | 0.215 | – | – | – | – | – | 0.203 |
| HCC-78 | 0.334 | – | 0.294 | 0.274 | 0.608 | 0.872 | 0.64 | 0.609 | 0.568 | – | 0.803 | 0.699 | 0.385 | – | – | – | – | – | 0.385 |
| HCC-366 | 0.524 | 0.483 | 0.448 | 0.398 | 0.632 | 0.623 | 0.584 | 0.646 | 0.591 | 1.02 | 1.02 | 0.918 | 0.363 | – | – | – | – | – | 0.561 |
| IA-LM | 0.711 | 0.903 | 0.864 | 0.788 | – | – | – | – | – | – | 0.841 | 0.542 | 0.398 | – | – | – | – | – | 0.879 |
| LCLC-103H | 1.06 | 0.986 | 0.959 | 0.876 | 0.265 | 0.342 | 0.374 | 0.354 | 0.305 | – | – | – | – | 1.01 | 0.988 | 1.02 | 0.806 | 0.763 | 1.12 |
| NCI-H441 | 0.82 | 0.657 | 0.62 | 0.697 | 0.706 | 1.01 | 1.03 | 0.927 | 0.633 | – | – | – | – | 0.554 | 0.307 | 0.364 | 0.312 | 0.278 | 0.732 |
| NCI-H522 | – | – | – | – | 0.643 | 0.613 | 0.747 | 0.571 | 0.63 | – | – | – | – | 1.09 | 1.04 | 1.01 | 1.11 | 1.42 | – |
| NCI-H1299 | 0.942 | 0.949 | 0.96 | 0.904 | – | – | – | – | – | 0.941 | 0.871 | 0.902 | 0.895 | – | – | – | – | – | 0.933 |
| NCI-H1395 | – | – | – | – | 0.41 | 0.435 | 0.396 | 0.437 | 0.399 | – | 1.11 | 0.881 | 0.833 | 0.684 | 0.721 | 0.603 | 0.514 | 0.453 | – |
| NCI-H1623 | – | – | – | – | 0.623 | 0.623 | 0.569 | 0.568 | 0.534 | – | – | – | – | 0.427 | 0.457 | 0.471 | 0.463 | 0.438 | – |
| NCI-H1703 | 0.618 | 0.715 | 0.31 | 0.54 | – | – | – | – | – | 1.03 | 0.928 | 1.06 | 1.07 | – | – | – | – | – | 0.797 |
| NCI-H1793 | – | – | – | – | 0.306 | 0.427 | 0.372 | 0.318 | 0.229 | – | 0.739 | 0.61 | 0.895 | 0.198 | 0.265 | 0.174 | 0.127 | 0.155 | – |
| NCI-H2342 | – | – | – | – | 0.578 | 0.704 | 0.58 | 0.602 | 0.469 | – | – | – | – | 0.919 | 0.652 | 0.584 | 0.544 | 0.607 | – |
| SW 900 | – | – | – | – | 0.484 | 0.895 | 0.534 | 0.638 | 0.405 | – | – | – | – | 0.18 | 0.167 | 0.153 | 0.132 | 0.148 | – |

From the supplement of paper PMC10307832
